System: C. elegans (N2 wild type)
Experiment: RNA interference in C. elegans by soaking L2 worms in HgRPS23 dsRNA (vitality/lethality)
Format: in vivo
Settings: 10 μM, positive control, after one day of soaking
Procedure: The effectiveness of HgRPS23 siRNA in silencing the worm's ribosomal protein gene was tested in C. elegans, following the previously published protocols (Alkharouf et al., 2007, Peng et al., 2016) with modifications. A T7 promoter sequence (5′-TAATACGACTCACTATAG-3′; SEQ ID NO: 3) was added to the 5′ ends of both the forward and reverse primer to amplify the 225 bp of HgRPS23 from pRD64 by PCR. The amplified PCR product was used to produce the double stranded (ds) in vitro transcript by the MEGAscript®T7 kit (Ambion/Invitrogen, Calsbad, Calif., USA).
The wt N2 strain of C. elegans was obtained from the CGC (Caenorhabditis Genetics Center) and maintained on NGM (Nematode Growth Medium) plates (60 mm petri dishes) at room temperature. The worms were grown and synchronized using protocols from the WormBase (www.wormbase.org). The L2 worms were soaked in 100 μl M9 buffer (22 mM KH2PO4, 4.7 mM NH4Cl, 43.6 mM Na2HPO4 and 2.1 mM NaCl) containing 50 mM octopamine (Sigma, St. Louis, Mo., USA) to increase pharyngeal pumping and 2 mg/ml HgRPS23 dsRNA. The negative control L2 worms were treated by soaking in M9 buffer containing 50 mM octopamine only. The positive control L2 worms were soaked in M9 buffer containing 50 mM octopamine and 10 μM cycloheximide (Sigma, St. Louis, Mo., USA) as a translation inhibitor. C. elegans worms were treated in the wells of a 96-well plate on a gentle shaker. […]

C[C@@H]1C[C@@H]([C@H](O)CC2CC(=O)NC(=O)C2)C(=O)[C@@H](C)C1 [cycloheximide]
vitality rate of N2 worms: approximately 20%
